Consider 3 compounds from US20230220480A1, “IRON-SCORE AND IN VITRO METHOD FOR IDENTIFYING HIGH RISK DLBCL SUBJECTS AND THERAPEUTIC USES AND METHODS” (CENTRE NATIONAL DE LA RECHERCHE SCIENTIFIQUE (CNRS), priority 2019, published 2023).

The structures appear in SMILES notation. Like-named read-outs stand apart in the source and are kept apart here.

The test system of one data set is DLBCL cells. The data set is described as follows: Ferroptosis, Bodipy-C11 staining and ferrostatin-1 rescue. In kind it is cell-based, human.
The test system of another data set is DB. The data set is described as follows: Cell viability assay (CellTiter-Glo, ATP quantification). In kind it is cell-based, human. The settings on record: cell viability by ATP quantification, read-out: 50% inhibitory concentration (IC50). As for the experimental part:
(§1) FIG. 3: Iron chelators and Ironomycin inhibit DLBCL cell growth DLBCL cells were incubated with different concentrations of iron chelators or vehicle for 96H. Inhibitory concentration 50% (IC50) was calculated with concentration-response curve after treatment with Deferoxamin (A), Deferasirox, (B) and Ironomycin (C). Cell viability was examined using quantification of ATP assay. Data are expressed as mean percentage+/−SEM of at least three independent experiments performed in sixplicate.
(§2) The 16 DLBCL cell lines (U2932, OCI-LY-3, NU-DHL-1, OCI-LY-19, DB, SUDHL4, OCILY1, SUDHL5, DOHH2, SUDHL10, HT, RI-1, SU-DHL-6, NUDUL-1, WSU-DLCL-2 and OCI-LY-7) were purchased from the DSMZ (Leibniz-Institut DSMZ—Deutsche Sammlung von Mikroorganismen und Zellkulturen GmbH, Germany). They were maintained in RPMI-1640 (Gibco, Invitrogen), supplemented with 10% fetal bovine serum (PAA laboratory GmbH) for U2932, SUDHL-4, HT, DOHH2, SUDHL-10, RI-1, WSU-DLCL-2 cell lines, 20% FBS OCI-LY3, DB, SUDHL-5, NUDHL-1, SU-DHL-6, NUDUL-1 cell lines. OCI-LY1 and OCI-LY7 were cultured in IMDM (Gibco, Invitrogen), supplemented with 20% fetal bovine serum and OCI-LY19 was cultured in MEM alpha modified (Gibco, Invitrogen), supplemented with 20% fetal bovine serum. Cultures were maintained at 37° C. in a humidified atmosphere with 5% CO2.
(§3) DLBCL-derived cell lines were cultured for 4 days in 96-well flat-bottom microtiter plates in RPMI 1640 medium, 10% or 20% FCS (control medium) in the presence of various compounds. The number of viable cells in culture was determined using the CellTiter-Glo Luminescent Cell Viability Assay from Promega, Madison, Wis., USA using a Centro LB 960 luminometer (Berthold Technologies, Bad Wildbad, Germany).
(§4) This test is based on quantitation of the intracellular ATP present, which signals the presence of metabolically active cells. Data are expressed as the mean percentage of six replicates, normalized to the untreated control.

A further data set concerns OCI-LY3. The data set is described as above. The settings on record: cell viability by ATP quantification, read-out: 50% inhibitory concentration (IC50). In kind it is cell-based, human. As for the experimental part:
as §1, §2, §3, §4

The test system of the next data set is SUDHL-5. The data set is described as above. In kind it is cell-based, human. As to conditions: SUDHL-5, 96H, cell viability by ATP quantification, read-out: 50% inhibitory concentration (IC50). How it is done: as §1, §2, §3, §4
In a further data set the test system is U2932. Described as above. In kind it is cell-based, human. The settings on record: cell viability by ATP quantification, read-out: 50% inhibitory concentration (IC50). How it is done: as §1, §2, §3, §4
Data set [1] relates to OCI-LY3 and DB cell lines. The text has this: The inventors further investigated the effect of Iron supplementation on the cell death induced by these treatments. Iron chelators concentrations were chosen according the maximal plasmatic concentration achievable in the patient (Nisbet-Brown et al., 2003).
Chaetocin was used as positive control of ROS production inhibited by GSH (Isham et al., 2007).

Take `CCOC(=O)c1ccc(NC2CCCCC2)c(N)c1` [Ferrostatin, Ferrostatin-1, reference compound]: in the data set on DLBCL cells, the “effect on erastin (ferroptosis inductor, positive control)” value is “abrogated the effects of erastin” and the “toxicity in DLBCL cells” value is “did not demonstrated significant toxicity”.

Consider `O=C(O)c1ccc(-n2nc(-c3ccccc3O)nc2-c2ccccc2O)cc1` [Deferasirox], for which the IC50 in the data set with DB (96H) was 13.9 µM; with DB (Homo sapiens, 96 h), 13.9 µM; with OCI-LY3 (Homo sapiens, OCI-Ly3, 96 h) it was 9.5 µM; with OCI-LY3 (OCI-LY3, 96H), 9.5 µM; in the data set on SUDHL-5 (Homo sapiens, SU-DHL-5, 96 h), 1.48 µM; with SUDHL-5, 1.48 µM. In addition, the IC50 was 4.79 µM in the data set with U2932 (Homo sapiens, U2932, 96 h) and 4.79 µM with U2932 (U2932, 96H). Further, in data set [1], the “effect of iron supplementation on drug-induced apoptosis / cytotoxicity” value is on record as “significantly inhibited”.

In the case of `CC(=O)N(O)CCCCCNC(=O)CCC(=O)N(O)CCCCCNC(=O)CCC(=O)N(O)CCCCCN` [Deferoxamine], the IC50 in the data set with DB (96H) was found to be 3.25 µM; in the data set with DB (Homo sapiens, 96 h), 3.24 µM; in the data set on OCI-LY3 (Homo sapiens, OCI-Ly3, 96 h), 3.75 µM; in the data set on OCI-LY3 (OCI-LY3, 96H), 3.75 µM; in the data set on SUDHL-5 (Homo sapiens, SU-DHL-5, 96 h), 1.55 µM; in the data set with SUDHL-5, 1.55 µM. In addition, the IC50 in the data set on U2932 (Homo sapiens, U2932, 96 h) stood at 2.42 µM; in the data set on U2932 (U2932, 96H), 2.28 µM. In addition, the “effect of iron supplementation on drug-induced apoptosis / cytotoxicity” value in data set [1] was “significantly inhibited”.
